Reference: US10543155B2, “Compositions containing zinc salts and isothiocyanates for reduction of oral volatile sulfur compounds (VSCs)” (priority 2011, dated 2020)

What was measured:
[1] = in vitro reduction of headspace H2S by isothiocyanates (GC-SCD); conditions: for Peak Area (headspace H2S): 200 ppm H2S in 5 ml PBS pH 7.4, 5 min 37° C.
Method: A stock solution of H2S was prepared by a serial dilution in PBS buffer (pH 7.4), with a final concentration of 200 ppm. Allyl isothiocyanate, benzyl isothiocyanate, ethyl isothiocyanate and 3-methylthiopropyl isothiocyanate (all from Sigma-Aldrich) were dissolved in pure ethanol to form 1.0% of working solution of each. A total of 5 ml PBS buffer containing 200 ppm of H2S in a headspace vial (22 ml volume) was mixed with 0.125, 0.25, 0.5 and 1 mg of each isothiocyanate compound for 5 min at 37° C., respectively. The headspace sample was injected into the GC-SCD by an automatic sampler for VSC analysis. The reduction of headspace concentration of H2S was calculated by the formula below: […]
In view of the results pertaining to allyl isothiocyanate in Table 1, Applicants further evaluated allyl isothiocyanate in vitro for its VSC elimination effect of hydrogen sulfide (H2S). A […] headspace vial containing 5 ml of PBS solution and 200 ppm of H2S was treated with various concentrations of allyl isothiocyanate, respectively (0.25-1.0 mg). In a standard experimental protocol, a stock of hydrogen sulfide solutions were prepared by dissolving c.a. 0.10 g of sodium sulfide in a total of 10 ml phosphate buffer solution (PBS) (pH 7.4). It was further diluted in PBS to produce a working solution contained 200 ppm of H2S in buffer.

[2] = zinc lactate and AITC against VSC mixture, headspace GC-SCD: CH3SH; conditions: 1 mg in 5 ml VSC mixture (200 ppm H2S, 40 ppm CH3SH), 37° C. 5 min, FIG. 4
Method: (§1) The final concentrations of H2S and CH3SH in solution were a 200 and 40 ppm, respectively. The final amount of VSC was 1.2 mg in the test vial. Although the headspace concentrations of H2S and CH3SH were well above the level found in a typical foul mouth air (200-500 parts per billion), the total amount of VSC was close to the amount presented in oral cavity. Subsequently, 5 ml of the VSC mixture was kept in a 22 ml tight screw cap headspace vial at 37° C. for 5 min. The headspace sample was injected into a GC column with an SCD detector. […] The large peak area of CH3SH reflects its volatility in the headspace compared with H2S.
(§2) Separately, 1 mg of zinc lactate, or 1 mg of allyl isothiocyanate (AITC), or combination of 1 mg Zinc lactate and 1 mg of AITC were added to each of headspace vial containing 5 ml VSC mixture and equilibrated at 37° C. for 5 min. Each headspace sample was injected into a GC column by a Combi-Pal auto-sampler. The amount of sulfur was analyzed by an Agilent SCD-355 chemoluminescent sulfide detector.

[3] = zinc lactate and AITC against VSC mixture, headspace GC-SCD: H2S; conditions: 1 mg in 5 ml VSC mixture (200 ppm H2S, 40 ppm CH3SH), 37° C. 5 min, FIG. 4
Method: as §1, §2

[4] = in vitro headspace GC-SCD test of zinc salts against methyl mercaptan; conditions: 200 ppm CH3SH in 5 ml PBS pH 7.4, 5 minutes at 37° C., FIG. 1
Method: For evaluation of the efficacy of various zinc salts against specific VSCs, the Applicants established an in vitro method using a headspace gas-chromatograph equipped with a sulfur detector. Thus, a total of 200 ppm of CH3SH in 5 ml of phosphate buffer solution (PBS) was prepared. The pH was maintained at 7.4. […] The headspace sample was injected into a gas chromatograph sulfur chemiluminescence detector (GC-SCD).

[5] = in vitro headspace GC-SCD test of zinc salts against H2S; conditions: 5 ml PBS containing 1 mg H2S, 37° C. 5 min; for reduces the oral malodor produced by hydrogen sulfide (H2S): FIG. 2
Method: In another experiment, 5 ml of PBS solution containing 1 mg of H2S was prepared via a serial dilution in a 22 ml headspace vial for FIG. 2 below. Different amounts of zinc salts were added and mixed at 37° C. for 5 min. The headspace concentration of H2S was analyzed by GC-SCD.

[6] = 50 ppm isothiocyanate, 200 ppm H2S
[7] = 100 ppm isothiocyanate, 200 ppm H2S
[8] = 200 ppm isothiocyanate, 200 ppm H2S

Row | Compound | % Reduction of headspace concentration (H2S) [1, 6] | Peak Area (headspace H2S) ([1]; 50 ppm isothiocyanate) | % Reduction of headspace concentration (H2S) [1, 7] | Peak Area (headspace H2S) ([1]; 100 ppm isothiocyanate) | % Reduction of headspace concentration (H2S) [1, 8] | Peak Area (headspace H2S) ([1]; 200 ppm isothiocyanate) | reduces the oral malodor produced by hydrogen sulfide (H2S) [5] | further results
1 | CSCCCN=C=S [3-methylthiopropyl isothiocyanate] | 51% | 416687277 | 75% | 211177117 | 94.5% | 46897168 |  | 
2 | C=CCN=C=S [Allyl isothiocyanate, allyl isothiocyanate] | 49% | 431713256 | 98.4% | 13651581 | 99.5% | 4266119 |  | CH3SH eliminated [2]: 78%; Reduction of H2S ([1]; 0.25 mg allyl isothiocyanate, 5 ml PBS, 200 ppm H2S): 49.0%; Reduction of H2S ([1]; 0.5 mg allyl isothiocyanate, 5 ml PBS, 200 ppm H2S): 98.4%; Reduction of H2S ([1]; 1 mg allyl isothiocyanate, 5 ml PBS, 200 ppm H2S): 99.5%; Reduction of H2S ([1]; at 100 ppm or greater): greater than 90%; H2S eliminated [3]: 98%
3 | S=C=NCc1ccccc1 [Benzyl isothiocyanate, benzyl isothiocyanate] | 53% | 398519292 |  |  |  |  |  | % Reduction of headspace concentration (H2S) ([1]; 25 ppm isothiocyanate, 200 ppm H2S): 42%; Peak Area (headspace H2S) ([1]; 25 ppm isothiocyanate): 491908604; % Reduction of headspace concentration (H2S) ([1]; 50 ppm isothiocyanate, 200 ppm H2S, listed as benzyl isothiocyanate): greater than 50%
4 | CCN=C=S [Ethylisothiocyanate, ethyl isothiocyanate] | −13% | 963110533 | 14.9% | 726258436 | 68% | 271822727 |  | % Reduction of headspace concentration (H2S) ([1]; 200 ppm isothiocyanate, 200 ppm H2S, listed as ethylisothiocyanate): 68%
5 | CC(O)C(=O)[O-].CC(O)C(=O)[O-].[Zn+2] (stereo not drawn) [zinc lactate] |  |  |  |  |  |  | reduces | reducing the headspace concentration of methyl mercaptan (CH3SH) [4]: ineffective; CH3SH eliminated [2]: 0%; amount of zinc salt above which H2S is reduced ([5]; in vitro): greater than 0.25 mg; H2S eliminated [3]: 98%
6 | zinc ascorbate |  |  |  |  |  |  | reduces | 
7 | zinc gluconate |  |  |  |  |  |  | reduces | reducing the headspace concentration of methyl mercaptan (CH3SH) [4]: ineffective
8 | zinc hydrogen aspartate |  |  |  |  |  |  | reduces | 
